Assays:
Format in all cases: in vivo
[1] = Sensory evaluation, sweet taste enhancement of LHe with sodium cyclamate (15-point scale)
Experimental: In order to verify specificity of the sweet taste enhancement effect of LHe, a sweetener except sucrose was used as a sweet taste reference sample. […] In the experiment, panels well trained in the basic tastes participated, and the presented samples were maintained at room temperature. After having a taste of the reference sample, the mouth was rinsed with water, and then after having a taste of the sample, intensity of each basic taste was evaluated.
In order to verify specificity of the sweet taste enhancement effect of LHe, a sweetener, except sucrose, was used as a sweet taste reference sample.

[2] = Sensory evaluation, sweet taste enhancement of LHe with sucrose (15-point scale)
Experimental: In order to more accurately verify the sweet taste enhancement effect of LHe, 2, 5, 10, and 15% sucrose solutions were used as sweet taste reference samples. An LHe solution (300 μg/mL) and an LHe+5% sucrose solution were presented as samples, and sweet taste intensities thereof were measured by a 15-point scale method. Here, the sweet taste intensities of sweet taste reference samples, 2, 5, 10, and 16% sucrose solutions were presented to be 2, 5, 10, and 15 points, respectively, according to the method of Meilgaard et al.
In order to more accurately verify the sweet taste enhancement effect of LHe, 2, 5, 10, and 15% sucrose solutions were used as sweet taste reference samples. A 300 μg/mL LHe solution and a 300 μg/mL LHe+5% sucrose solution were presented as samples, and sweet taste intensities thereof were measured by a 15-point scale method. Here, the sweet taste reference samples, 2, 5, 10, and 16% sucrose solutions were respectively presented to be 2, 5, 10, and 15 points according to the method of Meilgaard et al. (1987).

[3] = Sensory evaluation on Met-Asn peptide
Experimental: Sensory evaluation was conducted to validate the role of Met-Asn peptide itself, without sugar binding thereto, on the sweetening effect. […] When a Met-Asn peptide+5% sucrose solution was presented as a sample, the sweet taste intensity thereof was 5.00±0.23, which was not shown to have a significant difference from that of the 5% sucrose solution. […] Accordingly, the sweetness effect of the fraction containing the Met-Asn peptide may be due to the sugar structure binding.

Compound: O=S(=O)(O)NC1CCCCC1 [cyclamate, sodium cyclamate]
- sweet taste intensity ([1]; 0.056% cyclamate reference sample): 2.00±0.00
- sweet taste intensity ([1]; 0.14% cyclamate reference sample): 5.00±0.00

Compound: OC[C@H]1O[C@@](CO)(O[C@H]2O[C@H](CO)[C@@H](O)[C@H](O)[C@H]2O)[C@@H](O)[C@@H]1O [sucrose]
- sweet taste intensity ([2]; 2% sucrose reference sample): 2.00±0.00
- sweet taste intensity ([2]; 5% sucrose reference sample): 5.00±0.00
- sweet taste intensity ([3]; 5% sucrose reference sample): 5.00±0.00

Compound: Met-Asn [Met-Asn peptide]
- sweet taste intensity ([3]; Met-Asn peptide + 5% sucrose solution): 5.00±0.23
- sweet taste intensity ([3]; Met-Asn peptide itself, without sugar binding): 0.13±0.04

Source: US20140248411A1, “SWEETNESS ENHANCER” (KOREA FOOD RESEARCH INSTITUTE, priority 2011, published 2014)
